From patent US20160002204A1 (Board of Regents, The University of Texas System, priority 2014, published 2016)

Columns and labels:
[1] = target: T1, GLS1 (purified recombinant human GAC) (Homo sapiens, UniProt O94925); experiment: GLS1 enzymatic activity assay (dual-coupled, Amplex UltraRed/resorufin); format: biochemical
T1 sequence (O94925 55-598 isoform O94925-3 limits assumed): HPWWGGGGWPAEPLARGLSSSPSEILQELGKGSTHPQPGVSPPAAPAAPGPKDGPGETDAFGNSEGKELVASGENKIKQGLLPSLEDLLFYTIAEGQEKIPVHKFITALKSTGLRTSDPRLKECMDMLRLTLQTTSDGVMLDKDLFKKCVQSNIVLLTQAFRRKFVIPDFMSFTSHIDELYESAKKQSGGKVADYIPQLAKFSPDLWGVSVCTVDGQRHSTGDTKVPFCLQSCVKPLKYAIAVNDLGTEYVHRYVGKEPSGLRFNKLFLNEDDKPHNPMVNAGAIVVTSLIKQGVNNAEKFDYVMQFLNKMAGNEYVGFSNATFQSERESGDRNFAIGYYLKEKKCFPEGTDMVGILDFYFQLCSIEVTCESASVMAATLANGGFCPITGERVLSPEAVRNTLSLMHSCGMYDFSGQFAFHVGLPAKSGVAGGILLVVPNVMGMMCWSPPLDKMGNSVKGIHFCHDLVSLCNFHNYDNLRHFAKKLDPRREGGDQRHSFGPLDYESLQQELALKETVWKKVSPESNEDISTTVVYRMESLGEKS
How it was run: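 Recombinant human GAC (2 nM) preincubated with 50 mM potassium phosphate, then inhibitor (10 min each, RT); 1 mM glutamine, pH 7.4 Hepes buffer, 1% DMSO. Glutamate coupled via glutamate oxidase/HRP to resorufin (Ex 530/Em 590), kinetic or 20-min endpoint; IC50 by four-parameter logistic fit.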

A549 cells = experiment: A549 proliferation (viability) assay, Cell Titer Fluor, 72 hours; format: cell-based; conditions: Homo sapiens
How it was run: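 Compound was added to A549 cells (1000/well, pre-grown 24 h in RPMI 1640 plus 10% dialyzed FBS) at 0.5% DMSO and left 72 h under 37 °C, 5% CO2, ambient O2. Live-cell fluorescence (Cell Titer Fluor) gave the EC50.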

SMILES	IC50 [1] [nM]	EC50 (A549 cells) [nM]
O=C(CC1CCCCC1)Nc1ccn(CCC(F)Cn2cc(C(=O)NCc3cccc(OC(F)(F)F)c3)nn2)c(=O)c1 (stereo not shown) [Example 175, 1-{4-[4-(2-cyclohexylacetamido)-2-oxo-1,2-dihydropyridin-1-yl]-2-fluorobutyl}-N-{[3-(trifluoromethoxy)phenyl]methyl}-1H-1,2,3-triazole-4-carboxamide]	< 100	< 100
O=C(CC1CCCCC1)Nc1ccn(CCC(F)Cn2cc(C(=O)NCc3cc(OC(F)(F)F)ccc3F)nn2)c(=O)c1 (stereo not shown) [Example 176, 1-{4-[4-(2-cyclohexylacetamido)-2-oxo-1,2-dihydropyridin-1-yl]-2-fluorobutyl}-N-{[2-fluoro-5-(trifluoromethoxy)phenyl]methyl}-1H-1,2,3-triazole-4-carboxamide]	< 100	< 100
Cc1ccc(CNC(=O)c2cn(CC(F)CCn3ccc(NC(=O)CC4CCCCC4)cc3=O)nn2)cn1 (stereo not shown) [Example 177, 1-{4-[4-(2-cyclohexylacetamido)-2-oxo-1,2-dihydropyridin-1-yl]-2-fluorobutyl}-N-[(6-methylpyridin-3-yl)methyl]-1H-1,2,3-triazole-4-carboxamide]	< 100	< 100
O=C(CC1CCCCC1)Nc1ccn(CCC(F)Cn2cc(C(=O)NCc3cc(C(F)(F)F)ccn3)nn2)c(=O)c1 (stereo not shown) [Example 178, 1-{4-[4-(2-cyclohexylacetamido)-2-oxo-1,2-dihydropyridin-1-yl]-2-fluorobutyl}-N-{[4-(trifluoromethyl)pyridin-2-yl]methyl}-1H-1,2,3-triazole-4-carboxamide]	< 100	< 100
O=C(CC1CCS(=O)(=O)CC1)Nc1ccn(CCCCn2cc(C(=O)NCc3cccc(OC(F)(F)F)c3)nn2)c(=O)c1 [Example 179, 1-(4-{4-[2-(1,1-dioxo-1$l^6-thian-4-yl)acetamido]-2-oxo-1,2-dihydropyridin-1-yl}butyl)-N-{[3-(trifluoromethoxy)phenyl]methyl}-1H-1,2,3-triazole-4-carboxamide]	< 100	500 to 5000
O=C(Cc1ccccc1)Nc1ccn(CCC(F)Cn2cc(C(=O)NCc3cccc(OC(F)(F)F)c3)nn2)c(=O)c1F (stereo not shown) [Example 180]	< 100	< 100
O=C(CC1CCCCC1)Nc1ccn(CCCCn2cc(C(=O)NCc3cc(Cl)ccc3F)nn2)c(=O)c1 [Example 181, N-[(5-chloro-2-fluorophenyl)methyl]-1-{4-[4-(2-cyclohexylacetamido)-2-oxo-1,2-dihydropyridin-1-yl]butyl}-1H-1,2,3-triazole-4-carboxamide]	< 100	100 to 500
O=C(Cc1ccccn1)Nc1ccn(CCC(F)Cn2cc(C(=O)NCc3cc(OC(F)(F)F)ccc3F)nn2)c(=O)c1 (stereo not shown) [Example 182, 1-(2-fluoro-4-{2-oxo-4-[2-(pyridin-2-yl)acetamido]-1,2-dihydropyridin-1-yl}butyl)-N-{[2-fluoro-5-(trifluoromethoxy)phenyl]methyl}-1H-1,2,3-triazole-4-carboxamide]	< 100	100 to 500
O=C(Cc1ccccn1)Nc1ccn(CCC(F)Cn2cc(C(=O)NCc3cccc(C(F)(F)F)c3)nn2)c(=O)c1 (stereo not shown) [Example 183, 1-(2-fluoro-4-{2-oxo-4-[2-(pyridin-2-yl)acetamido]-1,2-dihydropyridin-1-yl}butyl)-N-{[3-(trifluoromethyl)phenyl]methyl}-1H-1,2,3-triazole-4-carboxamide]	< 100	500 to 5000
CO[C@H](C(=O)Nc1ccn(CCC(F)Cn2cc(C(=O)NCc3cccc(OC(F)(F)F)c3)nn2)c(=O)c1)c1ccccc1 (stereo partly drawn) [Example 184, 1-(2-fluoro-4-{4-[(2S)-2-methoxy-2-phenylacetamido]-2-oxo-1,2-dihydropyridin-1-yl}butyl)-N-{[3-(trifluoromethoxy)phenyl]methyl}-1H-1,2,3-triazole-4-carboxamide]	< 100	< 100
COCCOc1cccc(CC(=O)Nc2ccn(CCC(F)Cn3cc(C(=O)NCc4cccc(OC(F)(F)F)c4)nn3)c(=O)c2)c1 (stereo not shown) [Example 185, 1-[2-fluoro-4-(4-{2-[3-(2-methoxyethoxy)phenyl]acetamido}-2-oxo-1,2-dihydropyridin-1-yl)butyl]-N-{[3-(trifluoromethoxy)phenyl]methyl}-1H-1,2,3-triazole-4-carboxamide]	< 100	500 to 5000
CO[C@@H](C(=O)Nc1ccn(CCC(F)Cn2cc(C(=O)NCc3cccc(OC(F)(F)F)c3)nn2)c(=O)c1)c1ccccc1 (stereo partly drawn) [Example 186, 1-(2-fluoro-4-{4-[(2R)-2-methoxy-2-phenylacetamido]-2-oxo-1,2-dihydropyridin-1-yl}butyl)-N-{[3-(trifluoromethoxy)phenyl]methyl}-1H-1,2,3-triazole-4-carboxamide]	< 100	< 100
O=C(CC1CCCCO1)Nc1ccn(CCC(F)Cn2cc(C(=O)NCc3cccc(OC(F)(F)F)c3)nn2)c(=O)c1 (stereo not shown) [Example 187, 1-(2-fluoro-4-{4-[2-(oxan-2-yl)acetamido]-2-oxo-1,2-dihydropyridin-1-yl}butyl)-N-{[3-(trifluoromethoxy)phenyl]methyl}-1H-1,2,3-triazole-4-carboxamide]	< 100	< 100
N#CCC(=O)Nc1ccn(CCC(F)Cn2cc(C(=O)NCc3cccc(OC(F)(F)F)c3)nn2)c(=O)c1 (stereo not shown) [Example 188, 1-{4-[4-(2-cyanoacetamido)-2-oxo-1,2-dihydropyridin-1-yl]-2-fluorobutyl}-N-{[3-(trifluoromethoxy)phenyl]methyl}-1H-1,2,3-triazole-4-carboxamide]	500 to 5000	> 5000
Cn1ccnc1CC(=O)Nc1ccn(CCC(F)Cn2cc(C(=O)NCc3cccc(OC(F)(F)F)c3)nn2)c(=O)c1 (stereo not shown) [Example 189, 1-(2-fluoro-4-{4-[2-(1-methyl-1H-imidazol-2-yl)acetamido]-2-oxo-1,2-dihydropyridin-1-yl}butyl)-N-{[3-(trifluoromethoxy)phenyl]methyl}-1H-1,2,3-triazole-4-carboxamide]	100 to 500	> 5000
O=C(CC1CCCCC1)Nc1ccn(CCCCn2cc(C(=O)NCc3ccccn3)nn2)c(=O)c1 [Example 190, 1-{4-[4-(2-cyclohexylacetamido)-2-oxo-1,2-dihydropyridin-1-yl]butyl}-N-(pyridin-2-ylmethyl)-1H-1,2,3-triazole-4-carboxamide]	< 100	500 to 5000
O=C(CC1CCCCC1)Nc1ccn(CCCCn2cc(C(=O)NCc3cccnc3)nn2)c(=O)c1 [Example 191, 1-{4-[4-(2-cyclohexylacetamido)-2-oxo-1,2-dihydropyridin-1-yl]butyl}-N-(pyridin-3-ylmethyl)-1H-1,2,3-triazole-4-carboxamide]	< 100	100 to 500
O=C(CC1CCCCC1)Nc1ccn(CCCCn2cc(C(=O)NC(CO)c3ccccc3)nn2)c(=O)c1 (stereo not shown) [Example 192, 1-{4-[4-(2-cyclohexylacetamido)-2-oxo-1,2-dihydropyridin-1-yl]butyl}-N-(2-hydroxy-1-phenylethyl)-1H-1,2,3-triazole-4-carboxamide]	100 to 500	> 5000
CC(NC(=O)c1cn(CCCCn2ccc(NC(=O)CC3CCCCC3)cc2=O)nn1)c1cccc(OC(F)(F)F)c1 (stereo not shown) [Example 193, 1-{4-[4-(2-cyclohexylacetamido)-2-oxo-1,2-dihydropyridin-1-yl]butyl}-N-{1-[3-(trifluoromethoxy)phenyl]ethyl}-1H-1,2,3-triazole-4-carboxamide]	100 to 500	500 to 5000
O=C(CC1CCCCC1)Nc1ccn(CCCCn2cc(C(=O)NCc3cc(C(F)(F)F)ccn3)nn2)c(=O)c1 [Example 194, 1-{4-[4-(2-cyclohexylacetamido)-2-oxo-1,2-dihydropyridin-1-yl]butyl}-N-{[4-(trifluoromethyl)pyridin-2-yl]methyl}-1H-1,2,3-triazole-4-carboxamide]	< 100	< 100
Cc1ccc(CNC(=O)c2cn(CC(F)CCn3ccc(NC(=O)CC4CCCCO4)cc3=O)nn2)cn1 (stereo not shown) [Example 195, 1-(2-fluoro-4-{4-[2-(oxan-2-yl)acetamido]-2-oxo-1,2-dihydropyridin-1-yl}butyl)-N-[(6-methylpyridin-3-yl)methyl]-1H-1,2,3-triazole-4-carboxamide]	100 to 500	500 to 5000
Cc1ccc(CNC(=O)c2cn(CC(F)CCn3ccc(NC(=O)CC4CCCOC4)cc3=O)nn2)cn1 (stereo not shown) [Example 196, 1-(2-fluoro-4-{4-[2-(oxan-3-yl)acetamido]-2-oxo-1,2-dihydropyridin-1-yl}butyl)-N-[(6-methylpyridin-3-yl)methyl]-1H-1,2,3-triazole-4-carboxamide]	< 100	500 to 5000
Cc1ccc(CNC(=O)c2cn(CC(F)CCn3ccc(NC(=O)CC4CCOCC4)cc3=O)nn2)cn1 (stereo not shown) [Example 197, 1-(2-fluoro-4-{4-[2-(oxan-4-yl)acetamido]-2-oxo-1,2-dihydropyridin-1-yl}butyl)-N-[(6-methylpyridin-3-yl)methyl]-1H-1,2,3-triazole-4-carboxamide]	< 100	500 to 5000
